# Source: publication PMC4624220 (Journal of medicinal chemistry, 2015)
# Where “and” joins values, the source holds several entries; their conditions need not be identical. Identical values can stand only once. Entries after “also recorded” stand apart in the source; their conditions may differ. Like-named read-outs stand apart in the source and are kept apart here.
# Experiments:
# [1] = target: T1, tau fibrils (Homo sapiens, UniProt P10636)
# [2] = target: T2, Aβ1-42 fibrils (Homo sapiens, UniProt P05067)
# [3] = target: T3, α-syn fibrils (Homo sapiens, UniProt P37840)
# [4] = target: T2, Aβ1-42 fibrils; test: biochemical
# [5] = target: T3, α-syn fibrils; test: biochemical
# [6] = target: T1, tau fibrils; test: biochemical
# [7] = target: Lewy bodies (Homo sapiens, UniProt P37840); test: Fluorescent staining of postmortem PD/DLB midbrain tissue; conditions: 5 μM compound, PD/DLB midbrain sections, fluorescence microscopy
# [8] = target: Aβ plaques (Homo sapiens, UniProt P05067); test: Fluorescent staining of postmortem AD temporal lobe tissue; conditions: 5 μM compound, AD temporal lobe sections, fluorescence microscopy
# [9] = Stability of isomers in solution measured by HPLC; format: physicochemical; conditions: for time for isolated pure Z,E and E,E isomers to isomerize to a mixture: after HPLC separation of the isomers
# T1 sequence (P10636 560-692): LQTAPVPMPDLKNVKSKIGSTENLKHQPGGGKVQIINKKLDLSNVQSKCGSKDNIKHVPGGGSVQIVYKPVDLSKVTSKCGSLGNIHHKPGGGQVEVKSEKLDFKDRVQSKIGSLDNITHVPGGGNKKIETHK
# T2 sequence (P05067 672-713 limits assumed): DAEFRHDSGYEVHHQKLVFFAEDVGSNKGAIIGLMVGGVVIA
# Aβ plaques, sequence (P05067 672-711 limits assumed): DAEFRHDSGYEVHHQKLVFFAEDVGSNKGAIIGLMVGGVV
Molecule,Ki [4],Ki [5],Ki [6],other results
3-(3-(4-(Dimethylamino)phenyl)allylidene)-1-(pyridin-4-ylmethyl)indolin-2-one [Compound 29],–,–,–,Ki [1]: 188 ± 68 nM; Ki [2]: 45.9 ± 19.4 nM; Ki [3]: 92 ± 11.2 nM
3-(4-(Dimethylamino)benzylidene)-1-(pyridin-4-ylmethyl)indolin-2-one [Compound 11],–,–,–,Ki [1]: 364 ± 121 nM; Ki [2]: 87.1 ± 34.1 nM; Ki [3]: 150 ± 45.7 nM
"O=C1Nc2ccccc2C1=C/C=C/c1ccccc1 [Compound 18, 3-(3-Phenylallylidene)indolin-2-one]",267 nM,206 nM and 207 nM,522 nM,–
"COc1ccc(/C=C/C=C2C(=O)Nc3ccccc32)cc1 [Compound 19, 3-(3-(4-Methoxyphenyl)allylidene)indolin-2-one]",125 nM and 126 nM,62 nM and 61.1 nM,169 ± 22.3 nM,–
"CN(C)c1ccc(/C=C/C=C2C(=O)Nc3ccccc32)cc1 [Compound 20, 3-(3-(4-(Dimethylamino)phenyl)allylidene)indolin-2-one]",27 nM and 27.6 nM,41 nM and 40.7 nM,54 nM and 53.7 nM,"labeling of Lewy bodies [7]: label both Lewy bodies and Aβ plaques; also recorded: high labeling of both Lewy Bodies and Aβ plaques; labeling of Aβ plaques [8]: label both Lewy bodies and Aβ plaques; also recorded: high labeling of both Lewy Bodies and Aβ plaques; time for isolated pure Z,E and E,E isomers to isomerize to a mixture [9]: ≤ 20 min"
"CN(C)c1ccc(/C=C/C=C2C(=O)Nc3ncccc32)cc1 [Compound 21, 3-(3-(4-(Dimethylamino)phenyl)allylidene)-1H-pyrrolo[2,3-b]pyridin-2(3H)-one]",15.3 ± 5.5 nM,11.5 ± 2 nM,35.1 ± 12.3 nM,–
"CN(C)c1ccc(/C=C/C=C2C(=O)Nc3ccc(O)cc32)cc1 [Compound 22, 3-(3-(4-(Dimethylamino)phenyl)allylidene)-5-hydroxyindolin-2-one]",37.1 ± 13.6 nM,54 ± 17.9 nM,48 ± 17 nM,–
"COc1ccc(/C=C/C=C2C(=O)N(Cc3ccccc3)c3ccccc32)cc1 [Compound 24, 1-Benzyl-3-(3-(4-methoxyphenyl)allylidene)indolin-2-one]",741 ± 255 nM,72.5 ± 22.6 nM,718 ± 295 nM,–
"CN(C)c1ccc(/C=C/C=C2C(=O)N(C)c3ccccc32)cc1 [Compound 25, 3-(3-(4-(Dimethylamino)phenyl)allylidene)-1-methylindolin-2-one]",56 ± 14.8 nM,63.7 ± 29.6 nM,229 ± 121 nM,–
"CN(C)c1ccc(/C=C/C=C2C(=O)N(Cc3ccccc3)c3ccccc32)cc1 [Compound 26, 1-Benzyl-3-(3-(4-(dimethylamino)phenyl)allylidene)indolin-2-one]",358 ± 162 nM,40.9 ± 25.2 nM,374 ± 209 nM,–
"COc1ccc(CN2C(=O)C(=C/C=C/c3ccc(N(C)C)cc3)c3ccccc32)cc1 [Compound 27, 3-(3-(4-(Dimethylamino)phenyl)allylidene)-1-(4-methoxybenzyl)indolin-2-one]",130 ± 41.4 nM,54.6 ± 11.4 nM,240 ± 158 nM,"time for isolated pure Z,E and E,E isomers to isomerize to a mixture [9]: ≤ 20 min"
"CN(C)c1ccc(/C=C/C=C2C(=O)N(Cc3ccc([N+](=O)[O-])cc3)c3ccccc32)cc1 [Compound 28, 3-(3-(4-(Dimethylamino)phenyl)allylidene)-1-(4-nitrobenzyl)indolin-2-one]",92.4 ± 21.9 nM,4 nM and 4.2 nM,90 ± 48.8 nM,–
"CCOC(=O)N1C(=O)C(=C/C=C/c2ccc(N(C)C)cc2)c2ccccc21 [Compound 30, Ethyl 3-(3-(4-(dimethylamino)phenyl)allylidene)-2-oxoindoline-1-carboxylate]",84 ± 35 nM,45.3 ± 9 nM,263 ± 110 nM,–
"CN(C)c1ccc(/C=C/C=C2C(=O)N(Cc3ccccc3)c3ncccc32)cc1 [Compound 31, 1-Benzyl-3-(3-(4-(dimethylamino)phenyl)allylidene)-1H-pyrrolo[2,3-b]pyridin-2(3H)-one]",85.1 ± 23 nM,68.3 ± 31.2 nM,257 ± 117 nM,–
"COc1ccc(CN2C(=O)C(=C/C=C/c3ccc(N(C)C)cc3)c3cccnc32)cc1 [Compound 32, 3-(3-(4-(Dimethylamino)phenyl)allylidene)-1-(4-methoxybenzyl)-1H-pyrrolo[2,3-b]pyridin-2(3H)-one]",107 ± 18.9 nM,29.8 ± 6.6 nM,204 ± 26.7 nM,–
"CN(C)c1ccc(/C=C/C=C2C(=O)N(Cc3ccc(N)cc3)c3ccccc32)cc1 [Compound 33, 1-(4-Aminobenzyl)-3-(3-(4-(dimethylamino)phenyl)allylidene)indolin-2-one]",98.9 ± 12.1 nM,43.6 ± 20 nM,131 ± 51.5 nM,–
"CN(C)c1ccc(/C=C/C=C2C(=O)N(c3ccccc3)c3ccccc32)cc1 [Compound 36, 3-(3-(4-(Dimethylamino)phenyl)allylidene)-1-phenylindolin-2-one]",287 ± 142 nM,68.1 ± 33 nM,465 ± 94.6 nM,–
"O=C1Nc2ccccc2/C1=C/C=C/c1ccc([N+](=O)[O-])cc1 [Compound 41a, (Z)-3-((E)-3-(4-Nitrophenyl)allylidene)indolin-2-one]",–,–,–,"time stable in solution ([9]; CH2Cl2-MeOH (1:1), HPLC peak and retention time): ≥ 20 h"
"O=C1Nc2ccccc2/C1=C\C=C\c1ccc([N+](=O)[O-])cc1 [Compound 41b, (E)-3-((E)-3-(4-Nitrophenyl)allylidene)indolin-2-one]",–,–,–,"isomerization to an un-identified isomer ([9]; CH2Cl2-MeOH (1:1), 20 h, HPLC): 33%"
"Nc1ccc(/C=C/C=C2C(=O)Nc3ccccc32)cc1 [Compound 47, 3-(3-(4-Aminophenyl)allylidene)indolin-2-one]",50.8 ± 18.5 nM,44.8 ± 15.6 nM,38.3 ± 28.7 nM,–
